Assays:
Venturia Inequalis = test: Venturia inequalis (VENTIN) spore growth inhibition in liquid medium, 96-well microtiter plate, OD 600; format: cell-based; details: spore suspension in PDB liquid medium, 18° C., 15-18 days, OD at 600, read-out: control compared to the untreated check
Experimental: Potato dextrose (PDB) liquid medium containing a VENTIN (10^5 spores/ml) spore suspension was prepared. For the inhibition assay, each test compound was solved in dimethyl sulfoxide. 100 μl of the test compound in media-solution was added to a 96-well microtiter plate, consequently, the same volume (100 μl) of spore suspension was added to the well making the final test concentrations and the treated plate was incubated at 18° C. for 15-18 days. The growth inhibition was evaluated by measuring the OD at 600. Percent inhibition was calculated with the below formula: […]

Phakopsora pachyrhizi = Phakopsora pachyrhizi test on soybean, preventive, greenhouse; format: in vivo; details: preventive spray on soybean, inoculated one day after treatment, read-out: control (efficacy, disease severity) compared to the untreated check
Outline: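 Greenhouse-grown young soybean plants were sprayed with compound (2% DMSO/acetone, emulsifier in water) at the stated rate. One day later they were inoculated with 2×10^5 P. pachyrhizi inoculum and held at 22-24 °C, 80-90% relative humidity for disease development.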

Phytophthora infestans [1] = test: microbe, parasite or virus in culture; format: cell-based; details: 168 h, read-out: control compared to the untreated check
Phytophthora infestans [2] = test: whole plant or invertebrate; format: in vivo, Phytophthora infestans on tomato; details: in Solanum lycopersicum, read-out: control (efficacy, disease severity) compared to the untreated check
Pyricularia oryzae = test: microbe, parasite or virus in culture; format: cell-based; details: 168 h, read-out: control compared to the untreated check
Botrytis cinerea [3] = test: Botrytis cinerea test on tomato, preventive, greenhouse; format: in vivo; details: preventive spray on bean/chili plants (heading: tomato), inoculated one day after treatment, read-out: control (efficacy, disease severity) compared to the untreated check
Botrytis cinerea [4] = test: Botrytis cinerea (gray mold) mycelial radial growth on potato dextrose agar; format: cell-based; details: 168 h, 22° C., seven days, read-out: control compared to the untreated check
Experimental: The compounds were dissolved in 0.3% dimethyl sulfoxide and then added to potato dextrose agar medium just prior to dispensing it into petri dishes. 5 mL medium, with the compound in the desired concentration, was dispensed into 60 mm sterile petri-plates. After solidification, each plate was seeded with a 5 mm size mycelial disc taken from the periphery of an actively growing virulent culture plate. The plates were incubated in growth chambers at 22° C. temperature and 90% relative humidity for seven days and the radial growth was measured and compared to the one of the untreated control.

Botrytis cinerea [5] = test: Botrytis cinerea liq. (BOTRCI) spore growth inhibition in liquid medium, 96-well microtiter plate, OD 405 nm; format: cell-based; details: spore suspension in YBA liquid medium, 22° C., 5-6 days, OD at 405 nm, read-out: control compared to the untreated check
Experimental: Yeast bacterial peptone and sodium acetate (YBA) liquid medium containing a BOTRCI (10^4 spores/ml) spore suspension was prepared. For the inhibition assay, each test compound was solved in dimethyl sulfoxide. 100 μl of the test compound in media-solution was added to a 96-well microtiter plate, consequently, the same volume (100 μl) of spore suspension was added to the well making the final test concentrations and the plate was incubated at 22° C. for 5-6 days. The growth inhibition was evaluated by measuring the OD at 405 nm. Percent inhibition was calculated with the below formula:
Where T=treatment, C=control, and B=blank

Parastagonospora nodorum = Parastagonospora nodorum (PARANO) spore growth inhibition in liquid medium, 96-well microtiter plate, OD 600; format: cell-based; details: spore suspension in PDB liquid medium, 18° C., 5-6 days, OD at 600, read-out: control compared to the untreated check
Outline: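 Read-out is percent growth inhibition from OD at 600 after 5-6 days at 18° C. Compounds, dissolved in DMSO, were diluted in potato dextrose broth and combined in equal volume with a 10^5 spores/ml suspension of PARANO.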

Colletotrichum capsici = Colletotrichum capsici (anthracnose) mycelial radial growth on potato dextrose agar; format: cell-based; details: Colletotrichum truncatum, 168 h, 25° C., seven days, read-out: control compared to the untreated check
Outline: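 Compounds in 0.3% DMSO were mixed into potato dextrose agar, and each plate was seeded with a 5 mm mycelial disc from an actively growing culture. Plates were incubated at 25° C and 60% relative humidity for seven days. Radial growth was compared with untreated control.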

CC(C)(COC(=O)c1cccc(F)c1)NC(=O)c1cnc2[nH]ccc2c1 [Compound 146, 2-methyl-2-(1H-pyrrolo[2,3-b]pyridine-5-carboxamido)propyl 3-fluorobenzoate]
≥ 70%: inhibition of growth at 300 ppm (Venturia Inequalis) | pest or weed control at 500 ppm (Phakopsora pachyrhizi) | inhibition of growth at 300 ppm (Phytophthora infestans [1])

Cn1ccc2cc(C(=O)NC(C)(C)COC(=O)c3ccccc3C(F)(F)F)cnc21 [Compound 167, 2-methyl-2-(1-methyl-1H-pyrrolo[2,3-b]pyridine-5-carboxamido)propyl 2-(trifluoromethyl)benzoate]
≥ 70%: inhibition of growth at 300 ppm (Venturia Inequalis)

CC(c1ccccc1Cl)C(C)(C)NC(=O)c1cnc2c(c1)c(F)cn2C (stereo not drawn) [Compound 71, N-(3-(2-chlorophenyl)-2-methylbutan-2-yl)-3-fluoro-1-methyl-1H-pyrrolo[2,3-b]pyridine-5-carboxamide]
≥ 70%: pest or weed control at 500 ppm (Phytophthora infestans [2]) | pest or weed control at 500 ppm (Phakopsora pachyrhizi) | inhibition of growth at 300 ppm (Pyricularia oryzae)

Cn1cc(Cl)c2cc(C(=O)NC(C)(C)Cc3ccccc3)cnc21 [Compound 53, 3-chloro-1-methyl-N-(2-methyl-1-phenylpropan-2-yl)-1H-pyrrolo[2,3-b] pyridine-5-carboxamide]
≥ 70%: pest or weed control at 500 ppm (Phytophthora infestans [2]) | inhibition of growth at 300 ppm (Venturia Inequalis) | pest or weed control at 500 ppm (Phakopsora pachyrhizi) | inhibition of growth at 300 ppm (Pyricularia oryzae)

CC(C)CC(C)(Cc1ccccc1)NC(=O)c1cnc2[nH]c(=O)oc2c1 (stereo not drawn) [Compound 98, N-(2,4-dimethyl-1-phenylpentan-2-yl)-2-oxo-2,3-dihydrooxazolo[4,5-b] pyridine-6-carboxamide]
≥ 70%: pest or weed control at 500 ppm (Botrytis cinerea [3]) | inhibition of growth at 300 ppm (Botrytis cinerea [4]) | inhibition of growth at 300 ppm (Botrytis cinerea [5]) | inhibition of growth at 300 ppm (Phytophthora infestans [1]) | inhibition of growth at 300 ppm (Pyricularia oryzae)

Cc1nc2c(ccn2C)cc1C(=O)NC(C)(C)C(C)c1ccccc1Cl (stereo not drawn) [Compound 40, N-(3-(2-chlorophenyl)-2-methylbutan-2-yl)-1,6-dimethyl-1H-pyrrolo[2,3-b]pyridine-5-carboxamide]
≥ 70%: pest or weed control at 500 ppm (Phytophthora infestans [2]) | inhibition of growth at 300 ppm (Botrytis cinerea [4]) | inhibition of growth at 300 ppm (Parastagonospora nodorum) | pest or weed control at 500 ppm (Phakopsora pachyrhizi) | inhibition of growth at 300 ppm (Pyricularia oryzae)

Cn1ccc2cc(C(=O)NC(C)(C)Cc3ccc(Cl)c(F)c3)cnc21 [Compound 42, N-(1-(4-chloro-3-fluorophenyl)-2-methylpropan-2-yl)-1-methyl-1H-pyrrolo[2,3-b]pyridine-5-carboxamide]
≥ 70%: pest or weed control at 500 ppm (Phytophthora infestans [2]) | inhibition of growth at 300 ppm (Parastagonospora nodorum) | pest or weed control at 500 ppm (Phakopsora pachyrhizi) | inhibition of growth at 300 ppm (Pyricularia oryzae)

Cn1cc(Cl)c2cc(C(=O)NC(C)(C)Cc3ccccc3Cl)cnc21 [Compound 83, 3-chloro-N-(1-(2-chlorophenyl)-2-methylpropan-2-yl)-1-methyl-1H-pyrrolo[2,3-b]pyridine-5-carboxamide]
≥ 70%: pest or weed control at 500 ppm (Phytophthora infestans [2]) | pest or weed control at 500 ppm (Botrytis cinerea [3]) | inhibition of growth at 300 ppm (Venturia Inequalis) | pest or weed control at 500 ppm (Phakopsora pachyrhizi) | inhibition of growth at 300 ppm (Pyricularia oryzae)

Cn1ccc2cc(C(=O)NCC3(c4ccccc4)CC3)cnc21 [Compound 79, 1-methyl-N-((1-phenylcyclopropyl)methyl)-1H-pyrrolo [2,3-b]pyridine-5-carboxamide]
≥ 70%: pest or weed control at 500 ppm (Phytophthora infestans [2]) | inhibition of growth at 300 ppm (Venturia Inequalis) | inhibition of growth at 300 ppm (Parastagonospora nodorum) | inhibition of growth at 300 ppm (Phytophthora infestans [1]) | inhibition of growth at 300 ppm (Pyricularia oryzae)

COc1nc2c(cc1C(=O)NC1(c3ccccc3)CC1)CCC2 [Compound 252, 2-methoxy-N-(1-phenylcyclopropyl)-6,7-dihydro-5H-cyclopenta[b]pyridine-3-carboxamide]
≥ 70%: inhibition of growth at 300 ppm (Botrytis cinerea [4]) | inhibition of growth at 300 ppm (Botrytis cinerea [5]) | inhibition of growth at 300 ppm (Parastagonospora nodorum) | inhibition of growth at 300 ppm (Colletotrichum capsici) | inhibition of growth at 300 ppm (Phytophthora infestans [1])

Cc1cc2cc(C(=O)NC(C)(C)C(C)(C)c3ccccc3)cnc2n1C [Compound 100, N-(2,3-dimethyl-3-phenylbutan-2-yl)-1,2-dimethyl-1H-pyrrolo[2,3-b]pyridine-5-carboxamide]
≥ 70%: pest or weed control at 500 ppm (Botrytis cinerea [3]) | inhibition of growth at 300 ppm (Botrytis cinerea [4]) | inhibition of growth at 300 ppm (Botrytis cinerea [5]) | inhibition of growth at 300 ppm (Parastagonospora nodorum) | inhibition of growth at 300 ppm (Pyricularia oryzae)

COc1ccccc1CC(C)(C)NC(=O)c1cnc2c(ccn2C)c1 [Compound 49, N-(1-(2-methoxyphenyl)-2-methylpropan-2-yl)-1-methyl-1H-pyrrolo[2,3-b]pyridine-5-carboxamide]
≥ 70%: inhibition of growth at 300 ppm (Venturia Inequalis) | pest or weed control at 500 ppm (Phakopsora pachyrhizi)

Cn1ccc2cc(C(=O)NC(C)(C)Cc3cccc(Br)c3)cnc21 [Compound 48, N-(1-(3-bromophenyl)-2-methylpropan-2-yl)-1-methyl-1H-pyrrolo[2,3-b]pyridine-5-carboxamide]
≥ 70%: pest or weed control at 500 ppm (Phytophthora infestans [2]) | inhibition of growth at 300 ppm (Parastagonospora nodorum) | pest or weed control at 500 ppm (Phakopsora pachyrhizi) | inhibition of growth at 300 ppm (Pyricularia oryzae)

Cc1nc2c(ccn2C)cc1C(=O)NC(C)(C)Cc1ccccc1F [Compound 38, N-(1-(2-fluorophenyl)-2-methylpropan-2-yl)-1,6-dimethyl-1H-pyrrolo[2,3-b]pyridine-5-carboxamide]
≥ 70%: pest or weed control at 500 ppm (Phytophthora infestans [2]) | pest or weed control at 500 ppm (Botrytis cinerea [3]) | pest or weed control at 500 ppm (Phakopsora pachyrhizi) | inhibition of growth at 300 ppm (Pyricularia oryzae)

Cn1cc(F)c2cc(C(=O)NC(C)(C)Cc3ccccc3F)cnc21 [Compound 68, 3-fluoro-N-(1-(2-fluorophenyl)-2-methylpropan-2-yl)-1-methyl-1H-pyrrolo[2,3-b]pyridine-5-carboxamide]
≥ 70%: pest or weed control at 500 ppm (Phytophthora infestans [2]) | inhibition of growth at 300 ppm (Venturia Inequalis) | pest or weed control at 500 ppm (Phakopsora pachyrhizi)

CC(C)(COC(=O)c1cccc(F)c1)NC(=O)c1cnc2c(c1)CCC2 [Compound 145, 2-(6,7-dihydro-5H-cyclopenta[b]pyridine-3-carboxamido)-2-methylpropyl 3-fluorobenzoate]
≥ 70%: pest or weed control at 500 ppm (Phytophthora infestans [2])

CC(C)CC(C)(Cc1ccccc1)NC(=O)c1cnc2c(c1)c(Cl)cn2C (stereo not drawn) [Compound 52, 3-chloro-N-(2,4-dimethyl-1-phenylpentan-2-yl)-1-methyl-1H-pyrrolo[2,3-b]pyridine-5-carboxamide]
≥ 70%: pest or weed control at 500 ppm (Phytophthora infestans [2]) | inhibition of growth at 300 ppm (Venturia Inequalis) | pest or weed control at 500 ppm (Phakopsora pachyrhizi)

CC(C)(COC(=O)c1ccccc1C(F)(F)F)NC(=O)c1cnc2ccsc2c1 [Compound 161, 2-methyl-2-(thieno[3,2-b]pyridine-6-carboxamido)propyl 2-(trifluoromethyl)benzoate]
≥ 70%: inhibition of growth at 300 ppm (Venturia Inequalis) | inhibition of growth at 300 ppm (Pyricularia oryzae)

Cn1cc(F)c2cc(C(=O)NC(C)(C)Cc3ccc(Cl)c(F)c3)cnc21 [Compound 69, N-(1-(4-chloro-3-fluorophenyl)-2-methylpropan-2-yl)-3-fluoro-1-methyl-1H-pyrrolo[2,3-b]pyridine-5-carboxamide]
≥ 70%: pest or weed control at 500 ppm (Phytophthora infestans [2]) | inhibition of growth at 300 ppm (Venturia Inequalis) | inhibition of growth at 300 ppm (Pyricularia oryzae)

C=C(C)CC(C)(COc1ccccc1F)NC(=O)c1cnc2c(c1)CCC2 (stereo not drawn) [Compound 160, N-(1-(2-fluorophenoxy)-2,4-dimethylpent-4-en-2-yl)-6,7-dihydro-5H-cyclopenta[b]pyridine-3-carboxamide]
≥ 70%: inhibition of growth at 300 ppm (Botrytis cinerea [4]) | inhibition of growth at 300 ppm (Venturia Inequalis) | inhibition of growth at 300 ppm (Parastagonospora nodorum) | inhibition of growth at 300 ppm (Colletotrichum capsici)

CC(C)(NC(=O)c1cnc2ccsc2c1)C(O)Cc1ccccc1 (stereo not drawn) [Compound 105, N-(3-hydroxy-2-methyl-4-phenylbutan-2-yl)thieno[3,2-b] pyridine-6-carboxamide]
≥ 70%: inhibition of growth at 300 ppm (Botrytis cinerea [4]) | inhibition of growth at 300 ppm (Botrytis cinerea [5]) | inhibition of growth at 300 ppm (Parastagonospora nodorum) | inhibition of growth at 300 ppm (Phytophthora infestans [1])

— patent US20250049036A1 (priority 2021, published 2025)
